Earlier results as cited in patent publication US20110143366A1, “PROTEIN BIOMARKERS FOR IN VITRO TESTING OF DEVELOPMENTAL TOXICITY AND ENBRYOTOXICITY OF CHEMICAL SUBSTANCES” (PROTEOSYS AG, priority 2008, published 2011).

Tested on: Cardiomyocytes differentiated from murine embryonic stem cells (EST model)
Conditions: substances with known embryotoxic potency used in the EST model

| Structure (SMILES) | Embryotoxicity class of the substance |
| --- | --- |
| CC(C)(S)[C@@H](N)C(=O)O [D-penicillamine] | non-embryotoxic |
| CC[C@H](C)C(=O)O[C@H]1C[C@@H](C)C=C2C=C[C@H](C)[C@H](CC[C@@H]3C[C@@H](O)CC(=O)O3)[C@H]21 [Lovastatin] | highly embryotoxic |
| O=[N+]([O-])c1ccc(Oc2ccc(Cl)cc2Cl)cc1 [Nitrofen] | highly embryotoxic |
| C[C@@H]1Cc2c(Cl)cc(C(=O)N[C@@H](Cc3ccccc3)C(=O)O)c(O)c2C(=O)O1 [Ochratoxin, Ochratoxin-A] | highly embryotoxic |
| CN(C)CCOC(C)(c1ccccc1)c1ccccn1 (centres unmarked) [doxylamine] | non-embryotoxic |
| CCN(CC)CCNC(=O)c1cc(Cl)c(N)cc1OC [metoclopramide] | non-embryotoxic |
| CC[C@H](C)C(=O)O[C@H]1C[C@H](O)C=C2C=C[C@H](C)[C@H](CC[C@@H](O)C[C@@H](O)CC(=O)O)[C@H]21 [pravastatin] | moderately embryotoxic |
| N#CCCN [β-aminoproprionitril] | non-embryotoxic |
